Data reported in US20100184811A1, “ISONIAZID MEDIATED HEALING OF WOUNDS AND ULCERS” (priority 2006, published 2010).
Entries after “also recorded” stand apart in the source; their conditions may differ.

Legend:
[1] = system: ischemic wounds; experiment: Ischemic cutaneous wound healing in a validated rat model (dorsal ischemic skin flap); type: in vivo, Male Sprague-Dawley rats; conditions: 10 mg/kg i.p. b.i.d., 14 days; 8 mm full-thickness wound in ischemic flap; p=0.014
Protocol: The compounds were masked to the investigators. The first dose was given directly after wounding.
Results are expressed as mean±SD or mean±SEM. Wound healing differences among the two groups were calculated as the area under the wound healing curves (FIG. 2A+B) with correction according to Bonferroni (p=0.035). Licox® results were analyzed by the Wilcoxon test.

[2] = system: non-ischemic cutaneous lesions / non-TB chronic wounds; conditions: cited from earlier work
[3] = Tolerability and body weight in the rat wound model
Protocol: Rats were anesthetized by intraperitoneal (i.p.) injection of 100 mg/kg ketamine (Parke-Davis, Berlin, Germany) and 15 mg/kg xylazin (Bayer, Leverkusen, Germany). A standardized pedunculated dorsal ischemic skin flap (3 cm×7 cm) was lifted, replaced, and fixed with metal clips. Two full-thickness wounds were made using punch biopsies (8 mm diameter), one in the ischemic flap region and one non-ischemic outside the flap in the neck.
To the control group, comprising 10 rats, 10 ml/kg of sterile isotonic saline was administered. The compounds were masked to the investigators. The first dose was given directly after wounding. Wounds were traced (outer margins) on OpSite* Flexigrid* (Smith & Nephew) 30 minutes after wounding day 0 and after dressing (Hydrosorb, Hartmann) removal and wound cleansing on subsequent days (Table I). On post-wounding day 2, intracutaneous oxygen tensions were measured 1 hour after administration of compounds with Licox® (Integra LifeSciences Corporation) Clark type probe under full anesthesia. The Licox® probe was positioned at the wound edges using a Venflon catheter (FIG. 1).

## NNC(=O)c1ccncc1 [Isoniazid, pyridine-4-carbohydrazide]
[1]
  Healing of ischemic wounds compared with the control (area under the wound healing curves): promoted healing of the ischemic wounds; also recorded: stimulated ischemic wound healing
[2]; case report, Martyn and Campell (1963)
  Effect on healing of a variety of non-TB chronic wounds: stimulating effects
[2]; conclusion of Martyn and Campell (1963)
  Effect on ischemic tissue: little effect on ischemic tissue
[2]; tuberculosis and non-tuberculosis patients treated with isoniazid (Potter and Taylor, 1969)
  Healing of coincidental non-ischemic cutaneous lesions: healed
[3]; before operation or after 14 days of treatment
  Body weight difference among groups: did not differ significantly
[3]; before operation, n=10
  Body weights before operation (Mean ± SD): 360 ± 8 gram
[3]; group of 10 rats, death 5 days after operation
  Rats that died: one
[3]; post operative day 14, 10 mg/kg i.p. b.i.d., n=9
  Body weights on post-wounding day 14 (Mean ± SD): 341 ± 12 gram
